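Compound exposure: 48 hours, 5 concentrations, 96-well plates. GI50 is the concentration that inhibits growth by half.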 Activity calls are given as the source filed them. Cut-off read from the data, not from the text of the source: active = GI50 up to about 1.1 µM and inactive = higher.
Assays:
Assay in all cases: NCI tumour cell line growth inhibition, 48 h
[1] = tested on: M14
[2] = tested on: A498
[3] = tested on: U-251
[4] = tested on: NCI-H226
[5] = tested on: SF-268
[6] = tested on: HOP-92
[7] = tested on: HT-29
[8] = tested on: SN12C
[9] = tested on: KM12
[10] = tested on: NCI-H460
[11] = tested on: ACHN
[12] = tested on: SK-MEL-5
[13] = tested on: UACC-62
[14] = tested on: A549
[15] = tested on: SR
[16] = tested on: CCRF-CEM

Measured: GI50

N#CC1C(=O)NC(=O)C1=O (centres undefined)
inactive: [1] > 100 µM | [2] > 100 µM | [3] > 100 µM | [4] > 100 µM | [5] > 100 µM | [6] > 100 µM | [7] > 100 µM | [8] > 100 µM | [9] > 100 µM | [10] > 100 µM | [11] > 100 µM | [12] > 100 µM | [13] > 100 µM

Cc1cc(NS(=O)(=O)c2ccc(NC(=O)c3cccc4c(=O)c5ccccc5[nH]c34)cc2)no1
inactive: [2] 28.8 µM | [3] 29.9 µM | [4] 41.9 µM | [5] 30.5 µM | [6] 29.5 µM | [7] 43.1 µM | [14] > 100 µM | [15] 28.2 µM | [8] 44.1 µM | [16] 32.6 µM | [9] 78.3 µM | [10] 93.3 µM | [11] 65.6 µM | [12] 40.8 µM | [13] 26.1 µM

O=C1NN=CN2C(=O)CCC12 (centres undefined)
inactive: [1] > 100 µM | [2] > 100 µM | [3] > 100 µM | [5] > 100 µM | [6] > 100 µM | [14] > 100 µM | [15] > 100 µM | [8] > 100 µM | [16] > 100 µM | [9] > 100 µM | [10] > 100 µM | [11] > 100 µM | [12] > 100 µM | [13] > 100 µM

O=C(O)CC1CC=C[C@H]2c3cc4c(cc3C(=O)NC12)OCO4 (some centres undefined)
inactive: [1] > 75 µM | [3] > 75 µM | [4] 44.7 µM | [5] > 75 µM | [14] > 75 µM | [15] > 75 µM | [8] > 75 µM | [16] > 75 µM | [9] > 75 µM | [10] > 75 µM | [11] > 75 µM | [13] > 75 µM

CCCN(CCC)C(=O)c1nc(N)nc(-c2ccc(OC)cc2)c1-c1ccc(OC)cc1
inactive: [1] > 100 µM | [2] > 100 µM | [3] > 100 µM | [4] > 100 µM | [5] > 100 µM | [6] 82.6 µM | [7] > 100 µM | [14] > 100 µM | [8] > 100 µM | [16] > 100 µM | [9] > 100 µM | [10] > 100 µM | [11] > 100 µM | [12] > 100 µM | [13] > 100 µM

O=C1[C@H]2ON(c3ccccc3)C(c3ccco3)[C@H]2C(=O)N1c1ccc(Cc2ccc(N3C(=O)[C@@H]4ON(c5ccccc5)C(c5ccco5)[C@@H]4C3=O)cc2)cc1 (some centres undefined)
inactive: [1] 82.2 µM | [2] > 100 µM | [3] > 100 µM | [4] > 100 µM | [5] > 100 µM | [6] > 100 µM | [7] > 100 µM | [14] > 100 µM | [8] > 100 µM | [16] > 100 µM | [9] > 100 µM | [10] > 100 µM | [11] > 100 µM | [12] > 100 µM | [13] 85.3 µM

CCc1cc(C)cc2[n+]1CC=C2.[O-][Cl+3]([O-])([O-])[O-]
inactive: [1] 22.3 µM | [3] 39.5 µM | [4] 15.7 µM | [5] 32.5 µM | [6] 11.6 µM | [7] 19.4 µM | [14] 24.6 µM | [8] 22.2 µM | [9] 32.9 µM | [10] 27.3 µM | [11] 10.4 µM

Cc1cc(N(CCC#N)CCC#N)ccc1/N=N/c1ccc(C(=O)O)cc1
inactive: [1] > 100 µM | [2] > 100 µM | [3] > 100 µM | [4] > 100 µM | [5] > 100 µM | [7] > 100 µM | [14] > 100 µM | [8] > 100 µM | [9] > 100 µM | [11] > 100 µM | [12] > 100 µM | [13] > 100 µM

CC(=O)OCCc1cccnc1/C=N/O
inactive: [1] > 100 µM | [3] > 100 µM | [4] 77.6 µM | [5] > 100 µM | [6] > 100 µM | [7] > 100 µM | [14] > 100 µM | [15] > 100 µM | [8] > 100 µM | [16] > 100 µM | [9] > 100 µM | [10] > 100 µM | [11] > 100 µM | [12] > 100 µM | [13] > 100 µM

CCOc1ccc(/C=N\N2C(=O)c3ccccc3C2=O)cc1
inactive: [1] > 100 µM | [2] > 100 µM | [4] > 100 µM | [5] > 100 µM | [6] > 100 µM | [7] > 100 µM | [14] > 100 µM | [15] > 100 µM | [8] > 100 µM | [16] > 100 µM | [9] > 100 µM | [10] > 100 µM | [11] > 100 µM | [12] > 100 µM | [13] > 100 µM

COc1cc(-c2cc(-c3cc([N+](=O)[O-])c(/C=N/NC(=O)c4ccncc4)o3)ccc2OC)ccc1C
inactive: [1] > 100 µM | [2] > 100 µM | [4] > 100 µM | [5] > 100 µM | [6] > 100 µM | [7] > 100 µM | [14] > 100 µM | [8] > 100 µM | [16] > 10 µM | [11] > 100 µM | [13] > 100 µM

CCOC(=O)c1sc2c(C(=O)OCC)n3ccccc3c2c1N
inactive: [1] > 100 µM | [2] 71.9 µM | [3] 31.8 µM | [4] > 10 µM | [5] 21.7 µM | [6] 13.4 µM | [7] > 100 µM | [14] > 100 µM | [8] 96.8 µM | [16] > 100 µM | [9] > 100 µM | [10] > 100 µM | [11] 52.8 µM | [12] > 100 µM | [13] > 100 µM

CC(=O)Nc1ccc(S(=O)(=O)N/N=C/c2cc(I)cc([N+](=O)[O-])c2O)cc1
inactive: [1] 46.6 µM | [2] > 100 µM | [3] 49.4 µM | [4] 62.4 µM | [5] 32.9 µM | [7] > 100 µM | [14] > 100 µM | [8] 64.3 µM | [16] 35.6 µM | [9] > 100 µM | [10] > 100 µM | [11] > 100 µM | [12] 44 µM | [13] 30.3 µM

O=C1/C(=N\O)C2CCC1C2 (centres undefined)
inactive: [1] > 100 µM | [2] > 100 µM | [3] > 100 µM | [4] > 100 µM | [5] > 100 µM | [6] > 100 µM | [7] > 100 µM | [14] > 100 µM | [8] > 100 µM | [16] > 100 µM | [9] > 100 µM | [10] > 100 µM | [11] > 100 µM | [12] > 100 µM | [13] > 100 µM

COc1cc(O)c(C(=O)/C=C/c2ccc(OC)c(OCc3ccccc3)c2)c(OC)c1
inactive: [1] > 100 µM | [3] > 100 µM | [4] > 100 µM | [6] > 100 µM | [7] > 100 µM | [14] 64.6 µM | [15] 4.08 µM | [8] > 100 µM | [16] 3.92 µM | [9] 31 µM | [10] > 100 µM | [11] 5.58 µM | [12] > 100 µM | [13] 1.42 µM

CC1=CC(=O)C(=O)C2=C1OC1(C2)C(C)CCC2C3(C)CCC(O)C(C)(C)C3CCC21C (centres undefined)
inactive: [1] 18.8 µM | [3] 14.6 µM | [4] 18.2 µM | [5] 26.4 µM | [6] 17.3 µM | [7] 20.6 µM | [14] 33.3 µM | [15] 23.8 µM | [8] > 100 µM | [16] 14 µM | [9] 15.7 µM | [10] 17.5 µM | [11] 16.9 µM | [12] 18 µM | [13] 15.8 µM

C/C(=C\CC[C@]1(C)OC(C)(C)OC1CC/C(C)=C/CO[Si](c1ccccc1)(c1ccccc1)C(C)(C)C)CC/C=C/CO[Si](C)(C)C(C)(C)C (some centres undefined)
inactive: [1] > 100 µM | [2] > 100 µM | [3] > 100 µM | [4] > 100 µM | [5] > 100 µM | [6] > 100 µM | [7] > 100 µM | [14] > 100 µM | [8] > 100 µM | [16] > 100 µM | [9] > 100 µM | [10] > 100 µM | [11] > 100 µM | [12] > 100 µM | [13] > 100 µM

O=CN/C=C/c1ccc(O)c(O)c1
inactive: [1] > 100 µM | [2] > 100 µM | [3] > 100 µM | [4] > 100 µM | [5] > 100 µM | [6] > 100 µM | [7] > 100 µM | [14] > 100 µM | [8] > 100 µM | [16] > 100 µM | [9] > 100 µM | [10] > 100 µM | [11] > 100 µM | [13] > 100 µM

O=c1cc(-c2ccc(O)cc2)oc2cc(O)cc(O)c12 [APIGENIN]
inactive: [1] 44.4 µM | [3] 22.6 µM | [4] 24.7 µM | [5] 27.5 µM | [6] 20.2 µM | [14] 42.9 µM | [15] 33.6 µM | [8] 30.4 µM | [16] 20.4 µM | [9] 23.1 µM | [10] 31.4 µM | [11] 15.1 µM | [12] 25.4 µM | [13] 24.8 µM

From ChEMBL document CHEMBL1201862, “PubChem BioAssay data set” (2004)
